Patent US20080207632A1, “PROTEIN KINASE INHIBITORS” (SUPERGEN, INC., priority 2006, published 2008)
Read-outs that look alike come from different tables or passages of the source.

Key:
Format in all cases: cell-based
[1] = test system: HT-29 (colon); assay: in vitro cytotoxicity assay (Cell-Titer-Glo), HT-29; settings: Homo sapiens
Description: (§1) To evaluate cell killing of cancer cell lines, an in vitro cytotoxicity assay was performed. The tumor cell lines used were purchased from the American Type Culture Collection, and are identified as follows: Panc-1 (pancreas), MiaPaCa-2 (pancreas), MCF-7 (breast), HT-29 (colon), U2-OS (osteosarcoma), OVCAR-3 (ovary), HepG2 (hepatocellular carcinoma) and TT (medullary thyroid). The assay utilized the Cell-Titer-Glo Non-Radioactive Cell Proliferation Assay (Promega Corp., Madison, Wis.). First the cells were cultured in RPMI 1640 medium (Cat# 21870-076, Invitrogen Corporation) supplemented with 300 mg/L L-glutamine, 100 units/ml penicillin, 100 μg/ml streptomycin and 10% fetal bovine serum. All the cell lines were incubated in a humidified incubator at 37° C. with 5% CO2 atmosphere.
(§2) Cells were plated at a density of 2000 to 10000 cells per well, depending on their growth rate, in 0.09 mL medium on day 0 in 96-well Microlite TCT microtiter plates (7418, Thermo Labsystems, Franklin, Mass.). On day 1, 10 μL of serial dilutions of the individual compounds were added to the plates in replicates of 3. After incubation for 4 days at 37° C. in a humidified incubator, the cells were lysed in the Cell-Titer-Glo reagent, which also contains luciferase enzyme. The luciferase reaction utilizes ATP released from lysed cells to produce light, the intensity of which is linearly related to the amount of ATP. Thus, the amount of light produced is a reflection of the number of cells remaining in the well after drug treatment. This luminescence was measured using a Luminoskan luminometer (Thermo Electron Corp., Vantaa, Finland) Data were expressed as the percentage of survival of control cells calculated from the luminescence corrected for background. The surviving percent of cells was determined by dividing the mean luminescence values of the treated wells by the mean luminescence values of the control and multiplying by 100.
as §1, with “Briefly,” for “To evaluate cell killing of cancer cell lines, an in vitro cytotoxicity assay was performed. The”, “thyroid), PC-3 (prostate) and A549 (lung).” for “thyroid).”
as §1, with “carcinoma), PC-3 (prostate),” for “carcinoma)”, “A549 (lung).” for “TT (medullary thyroid).”
(§3) Cells were plated at a density of 2000 to 10000 cells per well, depending on their growth rate, in 0.09 mL medium on day 0 in 96-well Microlite TCT microtiter plates (#7418, Thermo Labsystems, Franklin, Mass.). On day 1, 10 μL of serial dilutions of the individual compounds were added to the plates in replicates of 3. After incubation for 4 days at 37° C. in a humidified incubator, the cells were lysed in the Cell-Titer-Glo reagent, which also contains luciferase enzyme. […]

[2] = test system: MiaPaCa-2 (pancreas); assay: in vitro cytotoxicity assay (Cell-Titer-Glo), MiaPaCa-2; settings: Homo sapiens, MIA PaCa-2, 96 h, 4 days
Description: as §1, §2
as §1, with “Briefly,” for “To evaluate cell killing of cancer cell lines, an in vitro cytotoxicity assay was performed. The”, “thyroid), PC-3 (prostate) and A549 (lung).” for “thyroid).”
as §1, with “carcinoma), PC-3 (prostate),” for “carcinoma)”, “A549 (lung).” for “TT (medullary thyroid).”
as §3

[3] = test system: Panc-1 (pancreas); assay: in vitro cytotoxicity assay (Cell-Titer-Glo), Panc-1; settings: Homo sapiens
Description: as §1, §2
as §1, with “Briefly,” for “To evaluate cell killing of cancer cell lines, an in vitro cytotoxicity assay was performed. The”, “thyroid), PC-3 (prostate) and A549 (lung).” for “thyroid).”
as §1, with “carcinoma), PC-3 (prostate),” for “carcinoma)”, “A549 (lung).” for “TT (medullary thyroid).”
as §3

[4] = test system: PC-3 (prostate); assay: in vitro cytotoxicity assay (Cell-Titer-Glo), PC-3
Description: as §1, with “Briefly,” for “To evaluate cell killing of cancer cell lines, an in vitro cytotoxicity assay was performed. The”, “thyroid), PC-3 (prostate) and A549 (lung).” for “thyroid).”
as §2
as §1, with “carcinoma), PC-3 (prostate),” for “carcinoma)”, “A549 (lung).” for “TT (medullary thyroid).”
as §2, with “(#7418,” for “(7418,”, “100. […]” for “100.”

[5] = test system: HepG2 (hepatocellular carcinoma); assay: in vitro cytotoxicity assay (Cell-Titer-Glo), HepG2; settings: Homo sapiens, HepG2, 96 h, 4 days
Description: as §1, §2
as §1, with “Briefly,” for “To evaluate cell killing of cancer cell lines, an in vitro cytotoxicity assay was performed. The”, “thyroid), PC-3 (prostate) and A549 (lung).” for “thyroid).”
as §1, with “carcinoma), PC-3 (prostate),” for “carcinoma)”, “A549 (lung).” for “TT (medullary thyroid).”
as §3

[6] = test system: MCF-7 (breast); assay: in vitro cytotoxicity assay (Cell-Titer-Glo), MCF-7; settings: Homo sapiens
Description: as §1, §2
as §1, with “Briefly,” for “To evaluate cell killing of cancer cell lines, an in vitro cytotoxicity assay was performed. The”, “thyroid), PC-3 (prostate) and A549 (lung).” for “thyroid).”
as §1, with “carcinoma), PC-3 (prostate),” for “carcinoma)”, “A549 (lung).” for “TT (medullary thyroid).”
as §3

[7] = test system: U2-OS (osteosarcoma); assay: in vitro cytotoxicity assay (Cell-Titer-Glo), U2-OS; settings: Homo sapiens, U2OS
Description: as §1, §2
as §1, with “Briefly,” for “To evaluate cell killing of cancer cell lines, an in vitro cytotoxicity assay was performed. The”, “thyroid), PC-3 (prostate) and A549 (lung).” for “thyroid).”
as §1, with “carcinoma), PC-3 (prostate),” for “carcinoma)”, “A549 (lung).” for “TT (medullary thyroid).”
as §3

[8] = test system: OVCAR-3 (ovary); assay: in vitro cytotoxicity assay (Cell-Titer-Glo), OVCAR-3; settings: Homo sapiens
Description: as §1, §2
as §1, with “Briefly,” for “To evaluate cell killing of cancer cell lines, an in vitro cytotoxicity assay was performed. The”, “thyroid), PC-3 (prostate) and A549 (lung).” for “thyroid).”
as §1, with “carcinoma), PC-3 (prostate),” for “carcinoma)”, “A549 (lung).” for “TT (medullary thyroid).”
as §3

[9] = test system: A549 (lung); assay: in vitro cytotoxicity assay (Cell-Titer-Glo), A549; settings: Homo sapiens
Description: as §1, with “Briefly,” for “To evaluate cell killing of cancer cell lines, an in vitro cytotoxicity assay was performed. The”, “thyroid), PC-3 (prostate) and A549 (lung).” for “thyroid).”
as §2
as §1, with “carcinoma), PC-3 (prostate),” for “carcinoma)”, “A549 (lung).” for “TT (medullary thyroid).”
as §2, with “(#7418,” for “(7418,”, “100. […]” for “100.”

[10] = HT-29, 96 h, Example 20, 4 days, read-out: Cell-based IC50 values HT-29
[11] = Example 20, read-out: Cell-based IC50 values MiaPaCa-2
[12] = PANC-1, 96 h, Example 20, 4 days, read-out: Cell-based IC50 values Panc-1
[13] = 96 h, Example 20, 4 days, read-out: Cell-based IC50 values PC-3
[14] = Example 20, read-out: Cell-based IC50 values HepG2
[15] = MCF7, 96 h, Example 20, 4 days, read-out: Cell-based IC50 values MCF-7
[16] = 96 h, Example 20, 4 days, read-out: Cell-based IC50 values U2-Os
[17] = OVCAR-3, 96 h, Example 20, 4 days, read-out: Cell-based IC50 values OVCAR-3
[18] = A549, 96 h, Example 20, 4 days, read-out: Cell-based IC50 values A549

Row | SMILES | IC50 [1, 10] [µM] | IC50 [2, 11] [µM] | IC50 [3, 12] [µM] | IC50 [4, 13] [µM] | IC50 [5, 14] [µM] | IC50 [6, 15] [µM] | IC50 [7, 16] [µM] | IC50 [8, 17] [µM] | IC50 [9, 18] [µM] | also measured
1 | CC(=O)NS(=O)(=O)c1ccc(NC(=S)N2CCN(c3ncnc4[nH]c5cc(C(F)(F)F)c(Cl)cc5c34)CC2)cc1 [Compound 1-1, 4-(6-Chloro-7-trifluoromethyl-9H-pyrimido[4,5-b]indol-4-yl)-piperazine-1-carbothioic acid (4-acetylsulfamoyl-phenyl)-amide] | 5.01 | 18.6 | 37.5 | 52.3 | 26 | 14.6 | 13.2 | 13.1 | 53.8 | IC50 ([1]; HT-29, 96 h, Example 18, 4 days, read-out: calculated IC50 HT-29): 14.7 µM; IC50 ([1]; HT-29, Table 10, 96 hours, read-out: IC50 HT-29 (inhibit cell growth to 50% of untreated)): 14.7 µM; IC50 ([2]; Example 18, read-out: calculated IC50 MiaPaCa-2): 66.6 µM; IC50 ([3]; PANC-1, 96 h, Example 18, 4 days, read-out: calculated IC50 Panc-1): 40.7 µM; IC50 ([3]; PANC-1, Table 10, 96 hours, read-out: IC50 Panc1 (inhibit cell growth to 50% of untreated)): 40.7 µM; IC50 ([4]; Table 10, 96 hours, read-out: IC50 PC-3 (inhibit cell growth to 50% of untreated)): 28.4 µM; IC50 ([5]; Example 18, read-out: calculated IC50 HepG2): 7.83 µM; IC50 ([6]; MCF7, 96 h, Example 18, 4 days, read-out: calculated IC50 MCF-7): 22.5 µM; IC50 ([6]; MCF7, Table 10, 96 hours, read-out: IC50 MCF-7 (inhibit cell growth to 50% of untreated)): 22.5 µM; IC50 ([7]; 96 h, Example 18, 4 days, read-out: calculated IC50 U2-OS): 25.9 µM; IC50 ([7]; Table 10, 96 hours, read-out: IC50 U2-Os (inhibit cell growth to 50% of untreated)): 25.9 µM; IC50 ([8]; OVCAR-3, 96 h, Example 18, 4 days, read-out: calculated IC50 OVCAR-3): 25 µM; IC50 ([8]; OVCAR-3, Table 10, 96 hours, read-out: IC50 OVCAR-3 (inhibit cell growth to 50% of untreated)): 25 µM; IC50 ([9]; A549, Table 10, 96 hours, read-out: IC50 A549 (inhibit cell growth to 50% of untreated)): 19 µM
2 | COc1cc2[nH]c3ncnc(N4CCN(C(=S)Nc5ccc(S(=O)(=O)NC(C)=O)cc5)CC4)c3c2cc1OC [Compound 1-2, 4-(6,7-Dimethoxy-9H-pyrimido[4,5-b]indol-4-yl)-piperazine-1-carbothioic acid (4-acetylsulfamoyl-phenyl)-amide] | 93.6 | 173 | 198 | 164 | 295 | 126 | 71.7 | 29.4 | 194 | 
3 | CC(=O)NS(=O)(=O)c1ccc(NC(=S)N2CCN(c3ncnc4[nH]c5ccc(Cl)cc5c34)CC2)cc1 [Compound 1-3, 4-(6-chloro-9H-pyrimido[4,5-b]indol-4-yl)-piperazine-1-carbothioic acid (4-acetylsulfamoyl-phenyl)-amide] | 29.8 | 22.1 | 35.8 | 47.3 | 49.6 | 209 | 20.8 | 48 | 37 | 
4 | CC(=O)NS(=O)(=O)c1ccc(NC(=S)N2CCN(c3ncnc4[nH]c5cc(F)ccc5c34)CC2)cc1 [Compound 1-4] | 103 | 85.2 | 136 | 160 | 88 | 249 | 36.3 | 79 | 72.7 | 
5 | COc1cc2c(cc1O)[nH]c1ncnc(N3CCN(C(=S)Nc4ccc(S(=O)(=O)NC(C)=O)cc4)CC3)c12 [Compound 1-8] | 27.3 |  |  |  | 81.8 | 83.1 |  | 82.4 |  | 
6 | COc1cc2[nH]c3ncnc(N4CCN(C(=S)Nc5ccc(S(=O)(=O)N6CCOCC6)cc5)CC4)c3c2cc1OC [Compound 1-26] | 176 | 8.92 | 139 | 22.3 | 4.38 | 14.7 | 6.95 | 156 | 130 | 
7 | COc1cc2[nH]c3ncnc(N4CCN(C(=S)Nc5ccc(NC(=O)C6CC6)cc5)CC4)c3c2cc1OC [Compound 1-34] | 138 | 9.82 | 125 | 21.9 | 81.9 | 76.9 | 27 | 111 | 186 | 
8 | COc1cc2[nH]c3ncnc(N4CCN(C(=S)Nc5ccc(NC(C)=O)cc5)CC4)c3c2cc1OC [Compound 1-42] | 140 | 182 | 216 | 189 | 98.5 | 4.62 | 41.3 | 85.1 | 160 | 
9 | COc1cc2[nH]c3ncnc(N4CCN(C(=S)Nc5ccc(S(N)(=O)=O)cc5)CC4)c3c2cc1OC [Compound 1-107] | > 300 | 107 | 300 | 2.33 | 173 | > 300 | 8.7 | 176 | 51.5 | 
10 | COc1cc2[nH]c3ncnc(N4CCN(C(=S)Nc5ccc(S(C)(=O)=O)cc5)CC4)c3c2cc1OC [Compound 1-115] | 97.4 | 55.4 | 49.8 | 75.7 | 57.9 | 87.8 | 50.4 | 175 | 149 | 
